Measured values taken from patent US12648942B2, “Method for treating acute ischemic stroke” (Lumosa Therapeutics Co., LTD, priority 2021, dated 2026).

What was measured:
[1] = system: embolic occlusion of the middle cerebral artery in male Sprague-Dawley rats; assay: Embolic stroke model in SD rat (Examples 1, 4-6); format: in vivo, Sprague-Dawley rat; conditions: for Mean neurological deficit scores (NDS): 24 hours after drug administration
Experimental: A 10% chloral hydrate solution (400 mg/kg) was injected intraperitoneally into SD male rats (240-320 g) for anesthesia. A vertical incision of about 2 cm in length was made on the right side near the center of the neck, and the right common carotid artery (CCA), external carotid artery (ECA) and internal carotid artery (ICA) were separated along the margin of the inner side of sternocleidomastoid muscles. The incision at the internal carotid artery and the proximal end of the common carotid artery were clipped respectively with noninvasive arterial clips. A small incision was made on the external carotid artery, and the distal end of the external carotid artery was ligated. The arterial clip at the proximal end of the common carotid artery was released, and 10 μl blood was drawn. After blood was drawn, the proximal end of the common carotid artery was again clipped with a noninvasive arterial clip. The 10 μl blood drawn was placed in a 1 mL EP vial and kept at RT for 30 min to allow the coagulation of blood and then transferred into a −20° C. refrigerator for 1 hour to allow the formation of solid coagulation. 1 hour later, the blood clots were taken out, 1 mL normal saline was added therein, and then the blood clots were broken into relatively uniform microthrombus by a steel spatula. The microthrombus suspension was then transferred into a 1 mL injector for use. When the clip on the internal carotid artery of the rat was released, the 1 mL thrombus suspension in the injector was slowly injected from the external carotid artery of the rat to its proximal end, and then was injected into the brain of the rat through the internal carotid artery. Subsequently, the proximal end of the external carotid artery was ligated, the arterial clips on the internal carotid artery and the common carotid artery were released, and blood flow was restored. The common jugular vein was separated, and then injected with normal saline solution, or tested compound. The vein was ligated. 3 drops of penicillin was dropped on the wound. The wound was sewed, and animals were waited for awake.
24 hours after the rats were awake, the degree of damage in neural function was evaluated by the Zealonga method. A score of 0 indicated no sign of loss in neural function, 1 indicated the front limbs on the undamaged side could not stretch out, 2 indicated walking toward the undamaged side, 3 indicated tail-chasing walking in circles toward the undamaged side, 4 indicated involuntary walking with disturbance of consciousness, and 5 indicated death. The evaluation results were statistically analyzed and subjected to t-test.
After the rats were awake for 24 hours and assessed for their degree of damage in neural function by Zealonga method, they were anesthetized with urethane followed by immediate decapitation and removal of the brain. Brain tissues were kept in a −20° C. refrigerator for 2 hours, and coronal sections of about 2 mm were successively sliced from the prefrontal end for a total of 5 sections and then placed into a 2% TTC solution to incubate without light at 37° C. for 30 min. The color change in brain sections was observed: normal brain tissues were stained red by TTC, while ischemic brain tissues appeared in white. Photographs were taken by using a digital camera and processed with image statistics software, and the volume of infarction in brain tissues and the area of normal brain tissues in the coronal sections were calculated. The ratio of the cerebral infarction volume of each group was statistically calculated and subject to t-test.
An embolic occlusion of the middle cerebral artery in male Sprague-Dawley rats was induced by introducing blood clots into the carotid artery. Rats were treated with vehicle (saline), rtPA (10 mg/kg, IV bolus injection), or DC009 (0.007 mg/kg, IV bolus injection) after 3 hours of stroke onset (n=12-13 per treatment group). […]

[2] = system: photochemically induced thrombosis of the middle cerebral artery in rats; assay: Photochemically induced thrombotic (PIT) stroke model in rats (Examples 3, 10); format: in vivo, rat; conditions: 24 hours after PIT surgery
Experimental: Under anesthesia, the left middle cerebral artery (MCA) was occluded by a thrombus generated at the site of photoirradiation. The left MCA was exposed via a transorbital approach. A vertical incision was made between the left orbital and the external auditory canal. The temporal muscle was reflected and a subtemporal craniotomy was performed without removing the zygomatic arch. A window of approximately 3 mm in diameter was opened at the base of the skull. The main trunk of the left MCA was visible through the window. Endothelial cells in the MCA were focally injured by a photochemical reaction between rose bengal and green illumination (X540 nm, 600,000 Lux). Rose bengal (20 mg/kg) was intravenously dose and then the MCA was exposed to green light for a period of 10 min. During surgery, animals were placed on a heating pad set at 38 C.
Twenty-four hours (±2 hrs.) after thromboembolism, and once daily for the next five days, neurologic deficits were scored according to a modified method described by Ederson et al. (Stroke, 1986, 17: 472-476). A total of “0” indicates no deficit whereas a maximal score of “15” indicates severe deficits.
Each brain was cut into six coronal blocks with a rat brain matrix (2 mm interval). Brains were post-fixed overnight in 4% paraformaldehyde at 3.1-6.2° C., stored in phosphate-buffered saline and sent out for histological processing. Each coronal block was embedded in paraffin. One coronal section from each block was taken and stained with hematoxylin and eosin (HE).
From the HE-stained sections, the infarct areas (mm^2) were manually marked using OsiriX version 8.0.2 (Pixmeo SARL, Bernex, Switzerland). The volume of ischemic infarction (mm^3) was calculated as the […] (six coronal sections per brain). Infarct volumes were calculated in cerebral cortex and basal ganglia. Total infarct volume was calculated by adding the infarct volumes of the basal ganglia and cerebral cortex.
Rats were treated with vehicle (saline), rtPA (10 mg/kg), DC009 (0.007 mg/kg, 15-minute IV infusion) after 1 hours of stroke onset, or DC009 (0.007 mg/kg, 15-minute IV infusion) after 3 hours of stroke onset. (n=10 per treatment group). At 24 hours after drug administration, rats were assessed with a neurological deficit scale (NDS).
24 hours after PIT surgery, rats were euthanized, and brains were processed for […].

[3] = DC009 0.007 mg/kg, 15-minute IV infusion, 1 hr post-PIT
[4] = DC009 0.007 mg/kg, 15-minute IV infusion, 3 hr post-PIT

CC(NC(=O)C1CCCN1)C(=O)NC(CCCCN)C(=O)NCCCCC(NC(=O)C1Cc2cc(O)c(O)cc2C(C)(C)N1)C(=O)O (stereo not drawn) [DC009, 3S-6,7-dihydroxy-1,1-dimethyl-1,2,3,4-tetrahydro-isoquinoline-3-acyl-Lys(Pro-Ala-Lys)]
infarct volumes (% hemisphere) ([1]; DC009 0.0007 mg/kg IV bolus from 24 hours after stroke onset, once daily for 6 days, 7 days after stroke): 9.95 ± 10.32% hemisphere | effective dose in the rat Embolic Stroke Model ([1]; data from Example 4-6): 7 to 70 µg/kg | infarction volume, Basal ganglia [2, 3]: 63.7 ± 10.3 ** mm^3 | infarction volume, Cerebral cortex [2, 3]: 210.6 ± 26.4 mm^3 | infarction volume, Basal ganglia [2, 4]: 94.8 ± 6.2 mm^3 | infarction volume, Cerebral cortex [2, 4]: 227.7 ± 18.4 mm^3 | infarction volume, Total [2, 4]: 322.5 ± 23.0 mm^3

rtPA: Alteplase (Activase), a recombinant tissue-type plasminogen activator (rtPA) [reference compound]
Mean neurological deficit scores (NDS) ([1]; rtPA 3 mg/kg IV bolus 6 hours after stroke onset, 6-point scale): 3.27 ± 1.85 | infarct volumes (% hemisphere) ([1]; rtPA 3 mg/kg IV bolus 6 hours after stroke onset, 24 hours, TTC): 17.90 ± 7.47% hemisphere | Mean neurological deficit scores (NDS) ([1]; rtPA 10 mg/kg IV bolus 3 hours after stroke onset, scale 0-5): 2.13 ± 1.173 | infarct volumes (% hemisphere) ([1]; rtPA 10 mg/kg IV bolus 3 hours after stroke onset, 24 hours, TTC): 12.74 ± 9.02% hemisphere | infarction volume, Basal ganglia ([2]; rtPA 10 mg/kg, 1 hr post-PIT): 80.7 ± 4.3 mm^3 | infarction volume, Cerebral cortex ([2]; rtPA 10 mg/kg, 1 hr post-PIT): 200.0 ± 18.1 mm^3 | infarction volume, Basal ganglia ([2]; rtPA 10 mg/kg, 3 hr post-PIT): 87.0 ± 7.0 mm^3 | infarction volume, Cerebral cortex ([2]; rtPA 10 mg/kg, 3 hr post-PIT): 173.5 ± 19.4 ** mm^3 | infarction volume, Total ([2]; rtPA 10 mg/kg, 3 hr post-PIT): 260.6 ± 23.9 ** mm^3
